Patent US20130289083A1, “IDO Inhibitors” (priority 2007, published 2013)
Read-outs that look alike come from different tables or passages of the source.

Key:
[1] = target: human IDO (Homo sapiens, UniProt P14902); test: Cell based IDO/kynurenine assay in IDO-293-T-Rex cells; conditions: kynurenine production, 293T cells expressing human IDO
In short: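 293-T-REx cells stably carrying doxycycline-inducible human or murine IDO were incubated with inhibitors in induction medium for 16 h at 37° C. Medium was TCA-treated at 60° C and reacted with p-dimethylaminobenzaldehyde. Kynurenine was quantified by absorbance at 480 nm.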

[2] = test system: IDO-293-T-Rex cells
Experimental: To measure the toxicity of each compound after 16 h incubation with cells, cell viability is measured via a WST-1 assay (Roche) according to instructions from the manufacturer. Briefly, after the incubation with each compound, medium is aspirated and replaced with […] of WST-1 reagent, and incubated 30 min at 37° C. Absorbance at 540 nm is correlated with the number of viable cells. Determination of IC50 (Kynurenine assay) or LD50 (WST-1 assay) is performed via non-linear regression analysis using GraphPad Prism software.
Viability was measure by the WST assay as described in one of the examples.

[3] = target: T1, murine IDO (Mus musculus, UniProt P28776); test: Cell based IDO/kynurenine assay in 293-T-Rex cells expressing murine IDO
T1 construct: expressed in transfected cells; host or cells: 293-T-REx cells (Invitrogen), doxycycline-inducible CMV-tet promoter
Experimental: Transfected cells were selected in DBZ medium (DMEM, 10% FBS, 1× Penicillin+Streptomycin, 2 mM L-glutamine, 5 μg/mL blasticidin and 25 μg/ml Zeocin) at 37° C. with a 5% CO2 in air atmosphere. Individual clones were isolated by limiting dilution cloning from these populations.
The cells incubated in Neutral medium serve as negative control of the assay. The cells incubated in Induction medium and without inhibitor serve as the positive control of the assay. The incubation is carried out for 16 h at 37° C. in a cell culture incubator. 200 μL of medium are transferred to U-bottom polypropylene 96-well plates containing 25 μL of 30% TCA, incubated 30 minutes at 60° C. and centrifuged at 3400 g for 5 minutes. 150 μL of the clear supernatant is transferred to a polystyrene 96-well plate containing 50 μL of 4% (w/v) of p-dimethylaminobenzaldehyde in acetic acid, incubated for 10 min. Kynurenine concentration is determined by measuring the absorbance at 480 nm.

[4] = test system: 293-T-Rex cells expressing murine IDO; test: Toxicity / cell viability (LD50) in the murine IDO cell based assay
[5] = target: purified human IDO protein (Homo sapiens, UniProt P14902); test: Enzymatic IDO assay (kynurenine production, absorbance 480 nm); conditions: recombinant human IDO, enzymatic activity
[6] = Table 16, 50% cell viability loss, WST assay, human IDO cell based assay
[7] = Table 16, cells expressing murine IDO, read-out: mIDO EC50
[8] = Table 16, cell viability loss, murine IDO cell based assay
[9] = Table 15, 50% cell viability loss, WST assay, human IDO cell based assay
[10] = Table 15, cells expressing murine IDO, read-out: mIDO EC50
[11] = Table 15, cell viability loss, murine IDO cell based assay

Chain of purified human IDO protein (P14902 whole entry P110S/E119G): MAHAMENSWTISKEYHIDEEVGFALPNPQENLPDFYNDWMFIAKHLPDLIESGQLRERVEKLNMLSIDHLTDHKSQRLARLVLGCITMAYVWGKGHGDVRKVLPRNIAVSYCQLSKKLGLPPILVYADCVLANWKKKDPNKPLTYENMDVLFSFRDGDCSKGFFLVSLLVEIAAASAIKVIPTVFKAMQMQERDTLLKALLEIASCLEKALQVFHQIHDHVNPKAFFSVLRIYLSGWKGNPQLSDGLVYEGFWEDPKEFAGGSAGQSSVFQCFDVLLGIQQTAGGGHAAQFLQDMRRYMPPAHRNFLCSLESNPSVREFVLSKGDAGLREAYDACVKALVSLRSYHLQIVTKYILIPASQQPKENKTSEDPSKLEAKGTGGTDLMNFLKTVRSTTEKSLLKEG
T1 sequence (P28776 whole entry): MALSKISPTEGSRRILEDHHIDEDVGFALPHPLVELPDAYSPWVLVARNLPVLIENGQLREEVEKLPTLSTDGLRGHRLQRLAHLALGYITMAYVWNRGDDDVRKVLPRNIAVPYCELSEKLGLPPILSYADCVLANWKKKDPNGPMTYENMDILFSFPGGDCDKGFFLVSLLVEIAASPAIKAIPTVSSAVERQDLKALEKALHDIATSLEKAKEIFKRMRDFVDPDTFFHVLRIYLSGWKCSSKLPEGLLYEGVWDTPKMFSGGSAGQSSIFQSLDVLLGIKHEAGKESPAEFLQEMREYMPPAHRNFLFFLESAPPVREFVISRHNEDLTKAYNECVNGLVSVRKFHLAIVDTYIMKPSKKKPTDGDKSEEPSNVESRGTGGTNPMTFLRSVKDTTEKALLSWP
Chain of human IDO (P14902 whole entry): as the sequence (P14902 whole entry P110S/E119G) above, with S110P, G119E counted along it

| Compound | EC50 ([1]; Table 16, read-out: hIDO EC50) | EC50 [3, 7] | IC50 ([5]; hIDO IC50, Table 16) | EC50 ([1]; Table 15, read-out: hIDO EC50) | EC50 [3, 10] | IC50 ([5]; hIDO IC50, Table 15) | other results |
| --- | --- | --- | --- | --- | --- | --- | --- |
| NOCc1cccc(F)c1 [compound 762, O-(3-fluorobenzyl)hydroxylamine] | < 10 µM | < 10 µM | < 10 µM |  |  |  | hIDO LD50 [2, 6]: D (D>1000 μM); mIDO LD50 [4, 8]: D (D>1000 μM) |
| NOCc1cccnc1 [compound 1738, O-(pyridin-3-ylmethyl)hydroxylamine] |  |  |  | < 10 µM | 10 to 100 µM | 10 to 100 µM | hIDO LD50 [2, 9]: D (D>1000 μM); mIDO LD50 [4, 11]: D (D>1000 μM) |
| NOCc1c[nH]c2ccccc12 [compound 1742, O-((1H-indol-3-yl)methyl)hydroxylamine] |  |  |  | < 10 µM | < 10 µM | 10 to 100 µM | hIDO LD50 [2, 9]: D (D>1000 μM); mIDO LD50 [4, 11]: D (D>1000 μM) |
| NOCc1ccc(I)cc1 [compound 1818, O-(4-iodobenzyl)hydroxylamine] | < 10 µM | 10 to 100 µM | < 10 µM |  |  |  | hIDO LD50 [2]: D (key: A: <10 μM; B: 10-100 μM; C: 100-1000 μM; D>1000 μM); mIDO LD50 [4]: D (key: A: <10 μM; B: 10-100 μM; C: 100-1000 μM; D>1000 μM) |
| NOCc1cc(Cl)cc(Cl)c1 [compound 1769, O-(3,5-dichlorobenzyl)hydroxylamine] |  |  |  | < 10 µM | < 10 µM | < 10 µM | hIDO LD50 [2]: D (key: A: <10 μM; B: 10-100 μM; C: 100-1000 μM; D>1000 μM); mIDO LD50 [4]: D (key: A: <10 μM; B: 10-100 μM; C: 100-1000 μM; D>1000 μM) |
| NOCc1cccc(Cl)c1 [compound 1672, O-(3-chlorobenzyl)hydroxylamine] | < 10 µM | < 10 µM | < 10 µM |  |  |  | hIDO LD50 [2]: D (key: A: <10 μM; B: 10-100 μM; C: 100-1000 μM; D>1000 μM); mIDO LD50 [4]: D (key: A: <10 μM; B: 10-100 μM; C: 100-1000 μM; D>1000 μM) |
| NOCc1ccccc1I [compound 1817, O-(2-iodobenzyl)hydroxylamine] | < 10 µM | 10 to 100 µM | < 10 µM |  |  |  | hIDO LD50 [2]: D (key: A: <10 μM; B: 10-100 μM; C: 100-1000 μM; D>1000 μM); mIDO LD50 [4]: D (key: A: <10 μM; B: 10-100 μM; C: 100-1000 μM; D>1000 μM) |
| NOCc1cc(F)cc(F)c1 [compound 1770, O-(3,5-difluorobenzyl)hydroxylamine] |  |  |  | < 10 µM |  | < 10 µM | hIDO LD50 [2]: D (key: A: <10 μM; B: 10-100 μM; C: 100-1000 μM; D>1000 μM); EC50 ([3]; Table 15, printed as a number instead of a range class, read-out: mIDO EC50): 2.3 µM; mIDO LD50 [4]: D (key: A: <10 μM; B: 10-100 μM; C: 100-1000 μM; D>1000 μM) |
| NOCc1cc([N+](=O)[O-])cc([N+](=O)[O-])c1 [compound 1657, O-(3,5-dinitrobenzyl)hydroxylamine] |  |  | < 10 µM |  |  |  | EC50 ([1]; hIDO EC50, Table 16): < 10 µM; hIDO LD50 [2, 6]: D (D>1000 μM); EC50 ([3]; mIDO EC50, Table 16, cells expressing murine IDO): < 10 µM; mIDO LD50 [4, 8]: D (D>1000 μM) |
| NOCc1ccc2ccccc2c1 [compound 1736, O-(naphthalen-2-ylmethyl)hydroxylamine] |  |  |  | < 10 µM | < 10 µM | < 10 µM | hIDO LD50 [2, 9]: D (D>1000 μM); mIDO LD50 [4, 11]: D (D>1000 μM) |
| NOCc1cc(F)cc(Cl)c1 [compound 1660, O-(3-chloro-5-fluorobenzyl)hydroxylamine] |  |  |  | < 10 µM | < 10 µM | < 10 µM |  |
| NOCc1ccc(CON)cc1 [compound 1492, O,O′-(1,4-phenylenebis(methylene))bis(hydroxylamine)] | < 10 µM | 10 to 100 µM | 10 to 100 µM |  |  |  |  |
| NOCc1ccc2ncccc2c1 [compound 1741, O-(quinolin-6-ylmethyl)hydroxylamine] |  |  |  | < 10 µM | < 10 µM | 10 to 100 µM |  |
| NOCc1ccccc1NCc1ccccc1 [compound 1662, 2-(aminooxymethyl)-N-benzylaniline] |  |  |  | < 10 µM | 100 to 1000 µM | < 10 µM |  |
| NOCCCc1ccccc1 [compound 1693, O-(3-phenylpropyl)hydroxylamine] | < 10 µM | 10 to 100 µM | 10 to 100 µM |  |  |  |  |
| NOCc1ccncc1 [compound 1737, O-(pyridin-4-ylmethyl)hydroxylamine] |  |  |  | < 10 µM | < 10 µM | 10 to 100 µM |  |
| N#Cc1ccc(CON)cc1 [compound 1896, 4-(aminooxymethyl)benzonitrile] |  |  |  | < 10 µM | 10 to 100 µM | < 10 µM | hIDO LD50 [2, 9]: D (D>1000 μM); mIDO LD50 [4, 11]: D (D>1000 μM) |
| NOCc1ccc([N+](=O)[O-])cc1 [compound 1014, O-(4-nitrobenzyl)hydroxylamine] | < 10 µM | 10 to 100 µM | 10 to 100 µM |  |  |  |  |
| NOCc1ccc(F)cc1 [compound 774, O-(4-fluorobenzyl)hydroxylamine] | < 10 µM | < 10 µM | < 10 µM |  |  |  |  |
| NOCc1ccc(C(F)(F)F)cc1 [compound 934, O-(4-(trifluoromethyl)benzyl)hydroxylamine] | < 10 µM | < 10 µM | < 10 µM |  |  |  |  |
| NOCc1cccc(I)c1 [compound 1816, O-(3-iodobenzyl)hydroxylamine] | < 10 µM | 10 to 100 µM | < 10 µM |  |  |  |  |

Continued, in another order:

| EC50 ([1]; Table 16, read-out: hIDO EC50) | EC50 [3, 7] | IC50 ([5]; hIDO IC50, Table 16) | EC50 ([1]; Table 15, read-out: hIDO EC50) | EC50 [3, 10] | IC50 ([5]; hIDO IC50, Table 15) | Compound | other results |
| --- | --- | --- | --- | --- | --- | --- | --- |
|  |  |  | < 10 µM | 10 to 100 µM | < 10 µM | NOCc1cc(Cl)ccc1-c1cccc(Cl)c1 [compound 1918, O-((3′,4-dichlorobiphenyl-2-yl)methyl)hydroxylamine] |  |
|  |  |  | < 10 µM | 10 to 100 µM | < 10 µM | NOC1CCCc2ccccc21 (stereo not shown) [compound 1895, O-(1,2,3,4-tetrahydronaphthalen-1-yl)hydroxylamine] |  |
|  |  |  | < 10 µM | 10 to 100 µM | < 10 µM | NOC(c1ccccc1)C1CCCCC1 (stereo not shown) [compound 1920, O-(cyclohexyl(phenyl)methyl)hydroxylamine] |  |
|  |  |  | < 10 µM | 10 to 100 µM | 10 to 100 µM | CNC(=O)CCC(ON)c1ccccc1 (stereo not shown) [compound 1898, 4-(aminooxy)-N-methyl-4-phenylbutanamide] |  |
|  |  |  | < 10 µM | 10 to 100 µM | < 10 µM | NOCc1cccc(-c2ccccc2)c1 [compound 1825, O-(biphenyl-3-ylmethyl)hydroxylamine] |  |
|  |  |  | < 10 µM | < 10 µM | < 10 µM | N#Cc1cccc(CON)c1 [compound 1873, 3-(aminooxymethyl)benzonitrile] |  |
| 10 to 100 µM | 10 to 100 µM | 10 to 100 µM |  |  |  | NOCc1ccccc1CON [compound 1822, O,O′-(1,2-phenylenebis(methylene))bis(hydroxylamine)] |  |
|  |  |  | < 10 µM | < 10 µM | < 10 µM | NOCc1cc(Cl)ccc1-c1ccc(Cl)cc1 [compound 1892, O-((4,4′-dichlorobiphenyl-2-yl)methyl)hydroxylamine] |  |
|  |  |  | < 10 µM | < 10 µM | < 10 µM | NOCc1cccc(Nc2ccccc2)c1 [compound 1829, 3-(aminooxymethyl)-N-phenylaniline] |  |
|  |  |  | 10 to 100 µM | 100 to 1000 µM | < 10 µM | NOCc1cc(Cl)ccc1-c1ccccc1Cl [compound 1915, O-((2′,4-dichlorobiphenyl-2-yl)methyl)hydroxylamine] |  |
|  |  |  | < 10 µM | 10 to 100 µM | < 10 µM | NOCc1ccccc1-c1ccc(Cl)cc1 [compound 1879, O-((4′-chlorobiphenyl-2-yl)methyl)hydroxylamine] |  |
|  |  |  | 10 to 100 µM | 100 to 1000 µM | 100 to 1000 µM | NOCc1cccc(NCc2ccccc2)c1 [compound 1828, 3-(aminooxymethyl)-N-benzylaniline] |  |
|  |  |  | < 10 µM | 10 to 100 µM | 10 to 100 µM | Cc1ccc(-c2cccc(CON)c2)cc1 [compound 1881, O-((4′-methylbiphenyl-3-yl)methyl)hydroxylamine] |  |
|  |  |  | < 10 µM | < 10 µM | < 10 µM | CNC(=O)C(ON)c1ccccc1 (stereo not shown) [compound 1897, 2-(aminooxy)-N-methyl-2-phenylacetamide] |  |
